{"source": "paper PMC6934184", "about": "“Selective DNA-PKcs inhibition extends the therapeutic index of localized radiotherapy and chemotherapy” (The Journal of Clinical Investigation, 2019)", "target": "T1, BRSK1 (SAD1) (Homo sapiens, UniProt Q8TDC3)", "T1 construct": "purchased Thermo Fisher Scientific (Life Technologies) SelectScreen", "T1 sequence (Q8TDC3 whole entry)": "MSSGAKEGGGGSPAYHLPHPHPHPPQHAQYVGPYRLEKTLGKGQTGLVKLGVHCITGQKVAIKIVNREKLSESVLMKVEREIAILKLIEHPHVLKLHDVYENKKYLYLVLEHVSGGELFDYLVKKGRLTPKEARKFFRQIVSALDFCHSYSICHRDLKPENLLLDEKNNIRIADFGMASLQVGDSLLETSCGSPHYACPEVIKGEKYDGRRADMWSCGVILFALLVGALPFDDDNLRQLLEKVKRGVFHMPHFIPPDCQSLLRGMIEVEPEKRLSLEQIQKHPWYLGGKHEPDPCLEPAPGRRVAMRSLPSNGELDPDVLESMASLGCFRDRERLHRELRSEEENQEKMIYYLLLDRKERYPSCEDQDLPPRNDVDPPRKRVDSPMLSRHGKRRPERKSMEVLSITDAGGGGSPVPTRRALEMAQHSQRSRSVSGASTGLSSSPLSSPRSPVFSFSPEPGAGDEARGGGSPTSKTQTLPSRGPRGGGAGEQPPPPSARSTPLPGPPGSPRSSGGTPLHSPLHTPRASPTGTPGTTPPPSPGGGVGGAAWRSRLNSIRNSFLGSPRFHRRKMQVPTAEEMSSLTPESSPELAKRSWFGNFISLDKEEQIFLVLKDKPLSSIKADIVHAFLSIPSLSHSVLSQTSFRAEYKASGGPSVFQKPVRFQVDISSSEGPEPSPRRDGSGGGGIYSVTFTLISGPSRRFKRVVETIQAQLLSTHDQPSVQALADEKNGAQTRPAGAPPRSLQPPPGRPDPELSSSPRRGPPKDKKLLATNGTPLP", "assay": "SelectScreen Z'LYTE", "format": "biochemical", "procedure,_shortened": "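NU5455 was profiled across the SelectScreen Broad panel of kinase activity and binding assays. Z'LYTE reactions such as CSF1R ran at apparent Km ATP, while the Adapta CAMK1 assay used ATP listed as 10. Values are given as percent.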"}
{"smiles": "CN(C(=O)CN1CCOCC1)c1ccc2sc3c(-c4cccc5c(=O)cc(N6CC7CCC(C6)O7)oc45)cccc3c2c1", "note": "[NU5455]", "values": [{"measurement": "inhibition at 1 µM", "value": -1.1, "unit": "%"}]}
